33 compounds from patent US8048892B2, “Azaquinolone based compounds exhibiting prolyl hydroxylase inhibitory activity, compositions, and uses thereof” (Amgen Inc., priority 2006, dated 2011) can be followed below.

Molecules are shown by their SMILES. Structures can show the parent of a compound that is named as a salt.

For the test, the target named is HIF PHD2 (Homo sapiens, UniProt Q9GZT9). Nature of the test: PHD2 inhibition assay (TR-FRET, VCB-Eu detection of hydroxylated P564-HIF1α peptide). The class given is biochemical. The settings on record: 2 nM PHD2, 100 nM P564-HIF1α peptide, 0.25 μM 2-oxoglutarate. The method in brief: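 Human PHD2 (2 nM final) preincubated 1 h at room temperature with compound and 100 μM FeCl2 in pH 6 MES buffer, 5% DMSO final. Reaction with 100 nM biotinylated P564-HIF1α peptide, 2 mM ascorbate and 0.25 μM 2-oxoglutarate for 1 h, stopped with succinate. Hydroxylation read by TR-FRET (VCB-Eu/streptavidin-APC, 655/615 nm); IC50 from 4-parameter fit of percent of control.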
Sequence of HIF PHD2 (Q9GZT9 whole entry): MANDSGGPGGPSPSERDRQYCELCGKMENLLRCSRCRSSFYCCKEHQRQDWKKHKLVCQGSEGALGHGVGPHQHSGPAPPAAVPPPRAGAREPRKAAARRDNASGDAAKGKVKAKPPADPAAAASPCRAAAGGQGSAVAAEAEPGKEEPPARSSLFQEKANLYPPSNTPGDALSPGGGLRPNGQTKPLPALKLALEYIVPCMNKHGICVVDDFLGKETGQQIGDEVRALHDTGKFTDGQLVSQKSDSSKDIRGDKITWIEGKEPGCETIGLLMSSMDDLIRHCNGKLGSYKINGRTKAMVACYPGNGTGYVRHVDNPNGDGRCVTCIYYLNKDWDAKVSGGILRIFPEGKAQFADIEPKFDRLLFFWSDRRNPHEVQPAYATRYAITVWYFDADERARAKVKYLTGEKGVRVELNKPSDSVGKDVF
On to `Cn1c(=O)c(C(=O)NCC(=O)O)c(O)c2cc(F)cnc21` [Example 77, 2-(6-Fluoro-4-hydroxy-1-methyl-2-oxo-1,2-dihydro-1,8-naphthyridine-3-carboxamido)acetic acid], for which the IC50 fell in the range of 50 to 100 nM.
`Cn1c(=O)c(C(=O)NCC(=O)O)c(O)c2c(NCC(=O)O)nccc21` [Example 129, 2-{4-Hydroxy-1-methyl-2-oxo-3-[(carboxymethyl)carbamoyl]-1,2-dihydro-1,6-naphthyridin-5-ylamino}acetic acid, Trifluoroacetic acid salt] yielded an IC50 of less than 50 nM.
To `Cn1c(=O)c(C(=O)NCC(=O)O)c(O)c2ccc(N3CCCCC3)nc21` [Example 22, 2-(4-Hydroxy-1-methyl-2-oxo-7-(piperidin-1-yl)-1,2-dihydro-1,8-naphthyridine-3-carboxamido)acetic acid] belongs 50 to 100 nM; to `C#Cc1ccc2c(O)c(C(=O)NCC(=O)O)c(=O)n(C)c2n1` [Example 20, 2-(7-Ethynyl-4-hydroxy-1-methyl-2-oxo-1,2-dihydro-1,8-naphthyridine-3-carboxamido)acetic acid], less than 50 nM; to `Cc1ccc(-c2ccc3c(O)c(C(=O)NCC(=O)O)c(=O)n(C)c3n2)cc1` [Example 15, N-((4-Hydroxy-1-methyl-7-(4-methylphenyl)-2-oxo-1,2-dihydro-1,8-naphthyridin-3-yl)carbonyl)glycine], 100 to 500 nM.
In turn, `Cc1ccnc(-c2cnc3c(c2)c(O)c(C(=O)NCC(=O)O)c(=O)n3C)n1` [Example 27, 2-(4-Hydroxy-1-methyl-6-(4-methylpyrimidin-2-yl)-2-oxo-1,2-dihydro-1,8-naphthyridine-3-carboxamido)acetic acid] yielded an IC50 of less than 50 nM.
Consider `Cn1c(=O)c(C(=O)NCC(=O)O)c(O)c2cc(-c3cccc(N4CCCC4)c3)cnc21` [Example 60, N-((4-Hydroxy-1-methyl-2-oxo-6-(3-(1-pyrrolidinyl)phenyl)-1,2-dihydro-1,8-naphthyridin-3-yl)carbonyl)glycine], for which the IC50 lay in the range of 100 to 500 nM.
The same measure for `Cn1c(=O)c(C(=O)NCC(=O)O)c(O)c2cc(-c3ccc4c(c3)CCO4)ncc21` [Example 108, N-((6-(2,3-Dihydro-1-benzofuran-5-yl)-4-hydroxy-1-methyl-2-oxo-1,2-dihydro-1,7-naphthyridin-3-yl)carbonyl)glycine]: less than 50 nM; for `Cn1c(=O)c(C(=O)NCC(=O)O)c(O)c2cc(-c3ccc(OC(F)(F)F)cc3)ncc21` [Example 110, 2-(4-Hydroxy-1-methyl-2-oxo-6-(4-(trifluoromethoxy)phenyl)-1,2-dihydro-1,7-naphthyridine-3-carboxamido)acetic acid, Trifluoroacetic acid salt.]: less than 50 nM; for `Cn1c(=O)c(C(=O)NCC(=O)O)c(O)c2cc(-c3ccccc3N3CCCCC3)cnc21` [Example 58, N-((4-Hydroxy-1-methyl-2-oxo-6-(2-(1-piperidinyl)phenyl)-1,2-dihydro-1,8-naphthyridin-3-yl)carbonyl)glycine]: 50 to 100 nM.
`COc1ccnc(-c2cnc3c(c2)c(O)c(C(=O)NCC(=O)O)c(=O)n3C)n1` [Example 29, 2-(4-Hydroxy-6-(4-methoxypyrimidin-2-yl)-1-methyl-2-oxo-1,2-dihydro-1,8-naphthyridine-3-carboxamido)acetic acid]: the IC50 is less than 50 nM.
`C#Cc1cnc2c(O)c(C(=O)NCC(=O)O)c(=O)n(C)c2c1` [Example 7, 2-(7-Ethynyl-4-hydroxy-1-methyl-2-oxo-1,2-dihydro-1,5-naphthyridine-3-carboxamido)acetic acid] came in with an IC50 of less than 50 nM.
For `C[C@H](NC(=O)c1c(O)c2ccc(C(F)(F)F)nc2n(C)c1=O)C(=O)O` [Example 89, (S)-2-(4-Hydroxy-1-methyl-2-oxo-7-(trifluoromethyl)-1,2-dihydro-1,8-naphthyridine-3-carboxamido)propanoic acid], the IC50 is 50 to 100 nM.
To `COc1ncc(-c2cnc3c(c2)c(O)c(C(=O)NCC(=O)O)c(=O)n3C)cn1` [Example 64, 2-(4-Hydroxy-6-(2-methoxypyrimidin-5-yl)-1-methyl-2-oxo-1,2-dihydro-1,8-naphthyridine-3-carboxamido)acetic acid] belongs 50 to 100 nM; to `Cn1c(=O)c(C(=O)NCC(=O)O)c(O)c2cc(C3CCOCC3)cnc21` [Example 34, 2-(4-Hydroxy-1-methyl-2-oxo-6-(tetrahydro-2 H-pyran-4-yl)-1,2-dihydro-1,8-naphthyridine-3-carboxamido)acetic acid], less than 50 nM.
The same measure for `COc1ccc(-c2ccc3c(O)c(C(=O)NCC(=O)O)c(=O)n(C)c3n2)cc1` [Example 16, N-((4-Hydroxy-1-methyl-7-(4-(methyloxy)phenyl)-2-oxo-1,2-dihydro-1,8-naphthyridin-3-yl)carbonyl)glycine]: 50 to 100 nM; for `Cn1c(=O)c(C(=O)NCC(=O)O)c(O)c2cc(-c3ccccc3)nc(C(F)(F)F)c21` [Example 124, 2-(4-Hydroxy-1-methyl-2-oxo-6-phenyl-8-(trifluoromethyl)-1,2-dihydro-1,7-naphthyridine-3-carboxamido)acetic acid]: 100 to 500 nM.
To `O=C(O)CNC(=O)c1c(O)c2ccc(C(F)(F)F)nc2[nH]c1=O` [Example 87, 2-(4-Hydroxy-2-oxo-7-(trifluoromethyl)-1,2-dihydro-1,8-naphthyridine-3-carboxamido)acetic acid] belongs less than 50 nM.
As for `CC(C)Oc1cccc(-c2cnc3c(c2)c(O)c(C(=O)NCC(=O)O)c(=O)n3C)c1` [Example 38, N-((4-Hydroxy-1-methyl-6-(3-((1-methylethyl)oxy)phenyl)-2-oxo-1,2-dihydro-1,8-naphthyridin-3-yl)carbonyl)glycine], the IC50 was 100 to 500 nM.
The same measure for `CN(C)c1ccccc1-c1cnc2c(c1)c(O)c(C(=O)NCC(=O)O)c(=O)n2C` [Example 33, 2-(6-(2-(Dimethylamino)phenyl)-4-hydroxy-1-methyl-2-oxo-1,2-dihydro-1,8-naphthyridine-3-carboxamido)acetic acid]: 50 to 100 nM.
The same measure for `Cn1c(=O)c(C(=O)NCC(=O)O)c(O)c2ccc(N3CCOCC3)nc21` [Example 23, 2-(4-Hydroxy-1-methyl-7-morpholino-2-oxo-1,2-dihydro-1,8-naphthyridine-3-carboxamido)acetic acid]: 100 to 500 nM; for `Cn1c(=O)c(C(=O)NCC(=O)O)c(O)c2ccc(C3CCCCC3)nc21` [Example 18, 2-(7-Cyclohexyl-4-hydroxy-1-methyl-2-oxo-1,2-dihydro-1,8-naphthyridine-3-carboxamido)acetic acid]: 100 to 500 nM.
To `Cn1c(=O)c(C(=O)NCC(=O)O)c(O)c2cc(C3=CCCCC3)cnc21` [Example 67, 2-(6-Cyclohexenyl-4-hydroxy-1-methyl-2-oxo-1,2-dihydro-1,8-naphthyridine-3-carboxamido)acetic acid] belongs less than 50 nM.
On to `Cn1c(=O)c(C(=O)NCC(=O)O)c(O)c2ccncc21` [Example 112, N-((4-Hydroxy-1-methyl-2-oxo-1,2-dihydro-1,7-naphthyridin-3-yl)carbonyl)glycine], for which the IC50 was 50 to 100 nM.
For the compound `CC(C)Oc1ccccc1-c1cnc2c(c1)c(O)c(C(=O)NCC(=O)O)c(=O)n2C` [Example 36, N-((4-Hydroxy-1-methyl-6-(2-((1-methylethyl)oxy)phenyl)-2-oxo-1,2-dihydro-1,8-naphthyridin-3-yl)carbonyl)glycine], the IC50 fell in the range of 100 to 500 nM.
`Cn1c(=O)c(C(=O)NCC(=O)O)c(O)c2cc(-c3nccc(C(F)(F)F)n3)cnc21` [Example 28] yielded an IC50 of less than 50 nM.
The compound `CC(=O)N1CCC(c2cc3c(O)c(C(=O)NCC(=O)O)c(=O)n(C)c3cn2)CC1` [Example 119, 2-(6-(1-Acetylpiperidin-4-yl)-4-hydroxy-1-methyl-2-oxo-1,2-dihydro-1,7-naphthyridine-3-carboxamido)acetic acid, Trifluoroacetic acid salt] registered an IC50 of less than 50 nM.
To `Cn1c(=O)c(C(=O)NCC(=O)O)c(O)c2cc(C3CCOC3)c(C(F)(F)F)nc21` (racemic) [Example 100, (R,S) 2-(4-Hydroxy-1-methyl-2-oxo-6-(tetrahydrofuran-3-yl)-7-(trifluoromethyl)-1,2-dihydro-1,8-naphthyridine-3-carboxamido)acetic acid] belongs less than 50 nM; to `Cn1c(=O)c(C(=O)NCC(=O)O)c(O)c2cc(N3CCOCC3)ncc21` [Example 120, 2-(4-Hydroxy-1-methyl-6-morpholino-2-oxo-1,2-dihydro-1,7-naphthyridine-3-carboxamido)acetic acid, Trifluoroacetic acid salt], less than 50 nM.
The same measure for `Cn1c(=O)c(C(=O)NCC(=O)O)c(O)c2cc(-c3cccnc3)ncc21` [Example 107, N-((4-Hydroxy-1-methyl-2-oxo-6-(3-pyridinyl)-1,2-dihydro-1,7-naphthyridin-3-yl)carbonyl)glycine]: 50 to 100 nM.
In turn, `Cn1c(=O)c(C(=O)NCC(=O)O)c(O)c2cc(-c3ccc(N4CCOCC4)cc3)cnc21` [Example 63, N-((4-Hydroxy-1-methyl-6-(4-(4-morpholinyl)phenyl)-2-oxo-1,2-dihydro-1,8-naphthyridin-3-yl)carbonyl)glycine] yielded an IC50 of less than 50 nM.
`Cn1c(=O)c(C(=O)NCC(=O)O)c(O)c2cc(C3CCCO3)cnc21` (stereo not drawn) [Example 71, 2-(4-Hydroxy-1-methyl-2-oxo-6-(tetrahydrofuran-2-yl)-1,2-dihydro-1,8-naphthyridine-3-carboxamido)acetic acid] gave an IC50 of 50 to 100 nM.
The same measure for `Cn1c(=O)c(C(=O)NCC(=O)O)c(O)c2cc(-c3cc(Cl)ncn3)cnc21` [Example 31, 2-(6-(6-Chloropyrimidin-4-yl)-4-hydroxy-1-methyl-2-oxo-1,2-dihydro-1,8-naphthyridine-3-carboxamido)acetic acid]: less than 50 nM.
